Results published in patent publication US6808877B2, “Ligands for FPR class receptors that induce a host immune response to a pathogen or inhibit HIV infection” (priority 2000, dated 2004).

Tests used:
[1] = molecular target: T1, FPR (Homo sapiens, UniProt P21462); assay: Migration of ETFR cells; type: cell-based; conditions: ETFR cells (overexpressing FPR)
T1 construct: H. Ali and R. Snyderman (Duke University); host or cells: RBL-2H3 rat basophilic leukemia cells
T1 sequence (P21462 1-350): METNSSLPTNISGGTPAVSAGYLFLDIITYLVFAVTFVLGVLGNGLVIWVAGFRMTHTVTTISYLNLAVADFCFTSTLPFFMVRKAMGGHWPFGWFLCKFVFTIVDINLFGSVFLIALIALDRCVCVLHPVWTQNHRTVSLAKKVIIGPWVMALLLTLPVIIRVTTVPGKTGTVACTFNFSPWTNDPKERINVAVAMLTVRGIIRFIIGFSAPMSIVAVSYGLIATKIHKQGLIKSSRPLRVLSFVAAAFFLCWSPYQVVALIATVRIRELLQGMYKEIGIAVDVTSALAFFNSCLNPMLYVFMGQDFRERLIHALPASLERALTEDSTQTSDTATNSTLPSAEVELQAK

[2] = molecular target: CXCR4 (Homo sapiens, UniProt P61073); assay: Interaction with CXCR4
[3] = tested on: neutrophils; assay: Neutrophil chemotaxis, 48-well micro-chemotaxis chamber; type: cell-based; conditions: human neutrophils
[4] = tested on: monocytes; assay: Monocyte chemotaxis, 48-well micro-chemotaxis chamber; type: cell-based, human; conditions: human monocytes
[5] = tested on: CCR5; type: cell-based, human; conditions: HOS/CD4/CCR5 cells co-expressing FPR
[6] = tested on: macrophages; conditions: compared to cells treated with medium alone
[7] = tested on: monocytes; assay: Monocyte migration in response to MIP-1β after pretreatment; type: cell-based, human; conditions: fMLP 10^−6 M, 37° C.
Description: Monocyte migration was assessed by a 48-well micro-chemotaxis chamber technique. 25 μl MIP-1β diluted in assay medium (RPMI 1640 with 1% BSA and 25 mM Hepes) was placed in the lower compartment of the chemotaxis chamber. 50 μl cell suspension (1×10^6 cell/ml) was placed in the upper compartment of the chamber. The upper and lower compartments were separated by a polycarbonate filter (5 μm pore-size, Neuroprobe, Cabin John, Md.). The chamber was incubated at 37° C. for 90 min in humidified air with 5% CO2. At the end of the incubation, the filter was removed, fixed and stained with Diff-Quik (Harlew, Gibbstown, N.J.). The migrated cells in three high-powered fields (HPF) obtained in triplicates (400×) were counted by light microscopy after coding the samples. The results are expressed as the net mean (±SD) number of migrated cells in 3 HPF after subtraction of spontaneous migration. At least three experiments were performed with same results.

[8] = tested on: CCR5; assay: 125I-MIP-1β binding to monocytes; set-up: species or system human
Description: Rocky Hill, N.J.). After incubation, the cells were washed with DPBS and centrifuged through a 10% sucrose/DPBS cushion. The tips of tubes containing cell pellets were cut and the cell-associated radioactivity was determined in a gamma counter. The results were presented as counts per minute (cpm) on 2×10^6 monocyte and were representative of at least three experiments performed.

[9] = tested on: HIVJRFL; type: cell-based, HIV-1; conditions: peripheral blood monocyte/macrophages
[10] = tested on: parental or mock transfected cells; assay: Ca2+ mobilization in parental or mock transfected rat basophil cell line and HEK 293 cells; type: cell-based

CXCR4, sequence (P61073 whole entry): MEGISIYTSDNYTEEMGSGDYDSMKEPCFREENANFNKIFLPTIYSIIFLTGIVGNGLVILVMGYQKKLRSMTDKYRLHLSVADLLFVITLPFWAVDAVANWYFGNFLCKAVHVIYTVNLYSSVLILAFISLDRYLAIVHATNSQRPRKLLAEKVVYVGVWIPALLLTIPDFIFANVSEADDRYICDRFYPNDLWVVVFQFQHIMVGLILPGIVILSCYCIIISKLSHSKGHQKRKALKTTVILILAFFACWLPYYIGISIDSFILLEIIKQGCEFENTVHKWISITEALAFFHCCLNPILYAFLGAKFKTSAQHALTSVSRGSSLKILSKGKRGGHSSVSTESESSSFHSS

| Compound | migration / chemotaxis [1] | interaction with CXCR4 [2] | chemotactic activity / migration [3] | chemotactic activity / migration [4] | phosphorylation of CCR5 [5] | viability of macrophages [6] | chemotactic response to MIP-1β after pretreatment [7] | specific binding for 125I-MIP-1β after treatment ([8]; monocytes treated for 1 h) | binding of 125I-MIP-1β after treatment ([8]; monocytes treated for up to 30 min at 37° C.) | displacement of 125I-MIP-1β binding ([8]; monocytes, high concentrations as competitor) | fusion and infection, syncytia formation and p24 production [9] | Ca2+ mobilization [10] |
| --- | --- | --- | --- | --- | --- | --- | --- | --- | --- | --- | --- | --- |
| TRPNYNKRKRIHIGPGRAFYTTKNIIGTIRQAH-NH2 [V3 peptide] | low level of chemotaxis response | did not interact with CXCR4 | potent chemoattractant | potent chemoattractant | – | – | – | – | – | – | – | – |
| CSCC[C@H](NC=O)C(=O)N[C@@H](CC(C)C)C(=O)N[C@@H](Cc1ccccc1)C(=O)O [fMLP, N-formyl-methionyl-leucyl-phenylalanine] | – | – | – | – | induced an increase in phosphorylation of CCR5 | did not affect the viability of macrophages | progressively reduced chemotactic response | markedly reduced | only a marginally reduced binding | did not displace any | significantly reduced the fusion and infection | did not induce Ca^2+ mobilization |
